Like-named read-outs stand apart in the source and are kept apart here.

This is an account of results in patent US12226424B2, “Target protein degradation compounds, their anti-tumor use, their intermediates and use of intermediates” (ShanghaiTech University, priority 2018, dated 2025).

This experiment deals with CDK4/6 protein. As to the kind of experiment: Western-blot determination of CDK4/6 protein degradation (DC50) in T-47D cells. The experiment is classed as cell-based, human.
Setting [1] is: 24 h drug treatment, read-out: DC50(nM)/T-47D cell line.
Where [2] appears, read: read-out: DC50(nM)/T-47D cell line, 24 h drug treatment.

With `CC(=O)c1c(C)c2cnc(Nc3ccc(N4CCN(C(=O)C[S+]([O-])c5cccc6c5C(=O)N(C5CCC(=O)NC5=O)C6=O)CC4)cn3)nc2n(C2CCCC2)c1=O` (centres unmarked) [SIAIS151057, 4-((2-(4-(6-((6-acetyl-8-cyclopentyl-5-methyl-7-oxo-7,8-dihydropyrido[2,3-d]pyrimidin-2-yl)amino)pyridin-3-yl)piperazin-1-yl)-2-oxoethyl)sulfinyl)-2-(2,6-dioxopiperidin-3-yl)isoindoline-1,3-dione], the DC50 under setting [1] is 100 to 500 nM.

Regarding `Cc1nc2c(F)cc(-c3nc(Nc4ccc(CN5CCN(C(=O)CCCCSc6cccc7c6CN(C6CCC(=O)NC6=O)C7=O)CC5)cn4)ncc3F)cc2n1C(C)C` (centres unmarked) [SIAIS262167, 3-(4-((5-(4-((6-((5-fluoro-4-(4-fluoro-1-isopropyl-2-methyl-1H-benzo[d]imidazol-6-yl)pyrimidin-2-yl)amino)pyridin-3-yl)methyl)piperazin-1-yl)-5-oxopentyl)thio)-1-oxoisoindolin-2-yl)piperidine-2,6-dione], the DC50 under setting [1] was in the range of 0.5 to 5 nM.

As to `CC(=O)c1c(C)c2cnc(Nc3ccc(N4CCN(C(=O)CSc5cccc6c5CN(C5CCC(=O)NC5=O)C6=O)CC4)cn3)nc2n(C2CCCC2)c1=O` (centres unmarked) [SIAIS219051, 3-(4-((2-(4-(6-((6-acetyl-8-cyclopentyl-5-methyl-7-oxo-7,8-dihydropyrido[2,3-d]pyrimidin-2-yl)amino)pyridin-3-yl)piperazin-1-yl)-2-oxoethyl)thio)-1-oxoisoindolin-2-yl)piperidine-2,6-dione], the DC50 under setting [1] was less than 1 nM. Turning to `CN(C)C(=O)c1cc2cnc(Nc3ccc(N4CCN(C(=O)CCCCCSc5cccc6c5C(=O)N(C5CCC(=O)NC5=O)C6=O)CC4)cn3)nc2n1C1CCCC1` (centres unmarked) [SIAIS219104, 7-cyclopentyl-2-((5-(4-(6-((2-(2,6-dioxopiperidin-3-yl)-1,3-dioxoisoindolin-4-yl)thio)hexanoyl)piperazin-1-yl)pyridin-2-yl)amino)-N,N-dimethyl-7H-pyrrolo[2,3-d]pyrimidine-6-carboxamide], the DC50 under setting [1] is 1 to 10 nM.

On to `CN(C)C(=O)c1cc2cnc(Nc3ccc(N4CCN(C(=O)CCCCSc5cccc6c5CN(C5CCC(=O)NC5=O)C6=O)CC4)cn3)nc2n1C1CCCC1` (centres unmarked) [SIAIS219089, 7-cyclopentyl-2-((5-(4-(5-((2-(2,6-dioxopiperidin-3-yl)-1-oxoisoindolin-4-yl)thio)pentanoyl)piperazin-1-yl)pyridin-2-yl)amino)-N,N-dimethyl-7H-pyrrolo[2,3-d]pyrimidine-6-carboxamide], for which, under setting [1], the DC50 is 1 to 10 nM. For the molecule `CN(C)C(=O)c1cc2cnc(Nc3ccc(N4CCN(C(=O)CCCSc5cccc6c5CN(C5CCC(=O)NC5=O)C6=O)CC4)cn3)nc2n1C1CCCC1` (centres unmarked) [SIAIS219088, 7-cyclopentyl-2-((5-(4-(4-((2-(2,6-dioxopiperidin-3-yl)-1-oxoisoindolin-4-yl)thio)butanoyl)piperazin-1-yl)pyridin-2-yl)amino)-N,N-dimethyl-7H-pyrrolo[2,3-d]pyrimidine-6-carboxamide], under setting [1], the DC50 fell in the range of 1 to 10 nM.

As to `CC(=O)c1c(C)c2cnc(Nc3ccc(N4CCN(CCSc5cccc6c5C(=O)N(C5CCC(=O)NC5=O)C6=O)CC4)cn3)nc2n(C2CCCC2)c1=O` (centres unmarked) [SIAIS219063, 4-((2-(4-(6-((6-acetyl-8-cyclopentyl-5-methyl-7-oxo-7,8-dihydropyrido[2,3-d]pyrimidin-2-yl)amino)pyridin-3-yl)piperazin-1-yl)ethyl)thio)-2-(2,6-dioxopiperidin-3-yl)isoindoline-1,3-dione], the DC50 under setting [1] was less than 1 nM. On to `Cc1nc2c(F)cc(-c3nc(Nc4ccc(CN5CCN(C(=O)CCCSc6cccc7c6CN(C6CCC(=O)NC6=O)C7=O)CC5)cn4)ncc3F)cc2n1C(C)C` (centres unmarked) [SIAIS262166, 3-(4-((4-(4-((6-((5-fluoro-4-(4-fluoro-1-isopropyl-2-methyl-1H-benzo[d]imidazol-6-yl)pyrimidin-2-yl)amino)pyridin-3-yl)methyl)piperazin-1-yl)-4-oxobutyl)thio)-1-oxoisoindolin-2-yl)piperidine-2,6-dione], for which the DC50 under setting [1] fell in the range of 0.5 to 5 nM. For the molecule `CN(C)C(=O)c1cc2cnc(Nc3ccc(N4CCN(C(=O)CCSc5cccc6c5C(=O)N(C5CCC(=O)NC5=O)C6=O)CC4)cn3)nc2n1C1CCCC1` (centres unmarked) [SIAIS219101, 7-cyclopentyl-2-((5-(4-(3-((2-(2,6-dioxopiperidin-3-yl)-1,3-dioxoisoindolin-4-yl)thio)propanoyl)piperazin-1-yl)pyridin-2-yl)amino)-N,N-dimethyl-7H-pyrrolo[2,3-d]pyrimidine-6-carboxamide], the DC50 under setting [1] is less than 100 nM. As for `CC(=O)c1c(C)c2cnc(Nc3ccc(N4CCN(C(=O)COCCOCCSc5cccc6c5C(=O)N(C5CCC(=O)NC5=O)C6=O)CC4)cn3)nc2n(C2CCCC2)c1=O` (centres unmarked) [SIAIS219059, 4-((2-(2-(2-(4-(6-((6-acetyl-8-cyclopentyl-5-methyl-7-oxo-7,8-dihydropyrido[2,3-d]pyrimidin-2-yl)amino)pyridin-3-yl)piperazin-1-yl)-2-oxoethoxy)ethoxy)ethyl)thio)-2-(2,6-dioxopiperidin-3-yl)isoindoline-1,3-dione], the DC50 under setting [1] is 10 to 50 nM.

In the case of `CN(C)C(=O)c1cc2cnc(Nc3ccc(N4CCN(C(=O)CSc5cccc6c5C(=O)N(C5CCC(=O)NC5=O)C6=O)CC4)cn3)nc2n1C1CCCC1` (centres unmarked) [SIAIS219100, 7-cyclopentyl-2-((5-(4-(2-((2-(2,6-dioxopiperidin-3-yl)-1,3-dioxoisoindolin-4-yl)thio)acetyl)piperazin-1-yl)pyridin-2-yl)amino)-N,N-dimethyl-7H-pyrrolo[2,3-d]pyrimidine-6-carboxamide], under setting [1], the DC50 is less than 0.04 nM. The same measure, in the same setting: the figure for `Cc1nc2c(F)cc(-c3nc(Nc4ccc(CN5CCN(C(=O)COCCSc6cccc7c6CN(C6CCC(=O)NC6=O)C7=O)CC5)cn4)ncc3F)cc2n1C(C)C` (centres unmarked) [SIAIS262171, 3-(4-((2-(2-(4-((6-((5-fluoro-4-(4-fluoro-1-isopropyl-2-methyl-1H-benzo[d]imidazol-6-yl)pyrimidin-2-yl)amino)pyridin-3-yl)methyl)piperazin-1-yl)-2-oxoethoxy)ethyl)thio)-1-oxoisoindolin-2-yl)piperidine-2,6-dione] is 0.5 nM. For `CN(C)C(=O)c1cc2cnc(Nc3ccc(N4CCN(C(=O)COCCSc5cccc6c5C(=O)N(C5CCC(=O)NC5=O)C6=O)CC4)cn3)nc2n1C1CCCC1` (centres unmarked) [SIAIS219111, 7-cyclopentyl-2-((5-(4-(2-(2-((2-(2,6-dioxopiperidin-3-yl)-1,3-dioxoisoindolin-4-yl)thio)ethoxy)acetyl)piperazin-1-yl)pyridin-2-yl)amino)-N,N-dimethyl-7H-pyrrolo[2,3-d]pyrimidine-6-carboxamide], the DC50 under setting [2] is less than 1 nM. On to `CN(C)C(=O)c1cc2cnc(Nc3ccc(N4CCN(C(=O)CCCCCCSc5cccc6c5C(=O)N(C5CCC(=O)NC5=O)C6=O)CC4)cn3)nc2n1C1CCCC1` (centres unmarked) [SIAIS219105, 7-cyclopentyl-2-((5-(4-(7-((2-(2,6-dioxopiperidin-3-yl)-1,3-dioxoisoindolin-4-yl)thio)heptanoyl)piperazin-1-yl)pyridin-2-yl)amino)-N,N-dimethyl-7H-pyrrolo[2,3-d]pyrimidine-6-carboxamide], for which, under setting [2], the DC50 was 0.04 to 0.2 nM.

Consider `CC(=O)c1c(C)c2cnc(Nc3ccc(N4CCN(C(=O)CCCCSc5cccc6c5C(=O)N(C5CCC(=O)NC5=O)C6=O)CC4)cn3)nc2n(C2CCCC2)c1=O` (centres unmarked) [SIAIS184088, 4-((5-(4-(6-((6-acetyl-8-cyclopentyl-5-methyl-7-oxo-7,8-dihydropyrido[2,3-d]pyrimidin-2-yl)amino)pyridin-3-yl)piperazin-1-yl)-5-oxopentyl)thio)-2-(2,6-dioxopiperidin-3-yl)isoindoline-1,3-dione], for which the DC50 under setting [1] was 1 to 10 nM. On to `CC(=O)c1c(C)c2cnc(Nc3ccc(N4CCN(C(=O)CS(=O)(=O)c5cccc6c5C(=O)N(C5CCC(=O)NC5=O)C6=O)CC4)cn3)nc2n(C2CCCC2)c1=O` (centres unmarked) [SIAIS151056, 4-((2-(4-(6-((6-acetyl-8-cyclopentyl-5-methyl-7-oxo-7,8-dihydropyrido[2,3-d]pyrimidin-2-yl)amino)pyridin-3-yl)piperazin-1-yl)-2-oxoethyl)sulfonyl)-2-(2,6-dioxopiperidin-3-yl)isoindoline-1,3-dione], for which the DC50 under setting [1] was 100 to 500 nM.

In the case of `CN(C)C(=O)c1cc2cnc(Nc3ccc(N4CCN(C(=O)COCCOCCOCCSc5cccc6c5CN(C5CCC(=O)NC5=O)C6=O)CC4)cn3)nc2n1C1CCCC1` (centres unmarked) [SIAIS219108, 7-cyclopentyl-2-((5-(4-(2-(2-(2-(2-((2-(2,6-dioxopiperidin-3-yl)-1-oxoisoindolin-4-yl)thio)ethoxy)ethoxy)ethoxy)acetyl)piperazin-1-yl)pyridin-2-yl)amino)-N,N-dimethyl-7H-pyrrolo[2,3-d]pyrimidine-6-carboxamide], the DC50 under setting [1] was in the range of 0.04 to 0.2 nM.

With `CN(C)C(=O)c1cc2cnc(Nc3ccc(N4CCN(C(=O)COCCOCCOCCOCCSc5cccc6c5CN(C5CCC(=O)NC5=O)C6=O)CC4)cn3)nc2n1C1CCCC1` (centres unmarked) [SIAIS219109, 7-cyclopentyl-2-((5-(4-(14-((2-(2,6-dioxopiperidin-3-yl)-1-oxoisoindolin-4-yl)thio)-3,6,9,12-tetraoxatetradecanoyl)piperazin-1-yl)pyridin-2-yl)amino)-N,N-dimethyl-7H-pyrrolo[2,3-d]pyrimidine-6-carboxamide], the DC50 under setting [1] was 1 to 10 nM. Take `CC(=O)c1c(C)c2cnc(Nc3ccc(N4CCN(C(=O)CCCCCSc5cccc6c5C(=O)N(C5CCC(=O)NC5=O)C6=O)CC4)cn3)nc2n(C2CCCC2)c1=O` (centres unmarked) [SIAIS184089, 4-((6-(4-(6-((6-acetyl-8-cyclopentyl-5-methyl-7-oxo-7,8-dihydropyrido[2,3-d]pyrimidin-2-yl)amino)pyridin-3-yl)piperazin-1-yl)-6-oxohexyl)thio)-2-(2,6-dioxopiperidin-3-yl)isoindoline-1,3-dione]: the DC50 under setting [1] fell in the range of 1 to 10 nM. Turning to `CC(=O)c1c(C)c2cnc(Nc3ccc(N4CCN(C(=O)COCCOCCOCCOCCSc5cccc6c5C(=O)N(C5CCC(=O)NC5=O)C6=O)CC4)cn3)nc2n(C2CCCC2)c1=O` (centres unmarked) [SIAIS219061, 4-((14-(4-(6-((6-acetyl-8-cyclopentyl-5-methyl-7-oxo-7,8-dihydropyrido[2,3-d]pyrimidin-2-yl)amino)pyridin-3-yl)piperazin-1-yl)-14-oxo-3,6,9,12-tetraoxatetradecyl)thio)-2-(2,6-dioxopiperidin-3-yl)isoindoline-1,3-dione], the DC50 under setting [1] fell in the range of 1 to 10 nM.
